Test results as given in US12157730B2, “Heteroaryl derivative, method for producing same, and pharmaceutical composition comprising same as effective component” (VORONOI INC., priority 2019, dated 2024).

target: T1, Ba/F3 cell EGFR Exon20 ins NPH (Homo sapiens, UniProt P00533, INS773NPH); test: Ba/F3 cell proliferation suppression, EGFR Exon20 ins NPH; format: cell-based; conditions: GI50 class; Ba/F3 cell line with NPH inserted at Exon20 of EGFR; 72 hours
T1 construct: expressed in transfected cells; host or cells: Ba/F3
In short: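 Cells were seeded 24 h before dosing and then treated for 72 hours with compound at final concentrations of 0.3 nM to 50 um. Live cells were measured by CellTiter-Glo luminescence, and GI50 values were derived from growth ratio relative to control across three repeats.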

Compound	Ba/F3 (NPH) Activity
C=CC(=O)Nc1cc(Nc2cc(N3OCC[C@@H]3c3cc(F)ccc3F)ncn2)c(OC)cc1N1CCC(N2C[C@H]3C[C@@H]2CO3)CC1 [Example 259, N-(2-(4-((1R,4R)-2-oxa-5-azabicyclo[2.2.1]heptane-5-yl)piperidine-1-yl)-5-((6-((R)-3-(2,5-difluorophenyl)isoxazolidine-2-yl)pyrimidine-4-yl)amino)-4-methoxyphenyl) acrylamide]	A (GI50 < 50 nM)
C=CC(=O)Nc1cc(Nc2cc(N3OCC[C@@H]3c3cccc4ccccc34)ncn2)c(OC)cc1N1CCC(N2CCN(C3CC3)[C@@H](C)C2)CC1 [Example 156, N-(2-(4-((S)-4-cyclopropyl-3-methylpiperazine-1-yl)piperidine-1-yl)-4-methoxy-5-((6-((R)-3-(naphthalene-1-yl)isoxazolidine-2-yl)pyrimidine-4-yl)amino)phenyl)acrylamide]	A (GI50 < 50 nM)
C=CC(=O)Nc1cc(Nc2cc(N3OCC[C@@H]3c3ccc(F)c(Cl)c3F)ncn2)c(OC)cc1N1CCC(N2CCN(C3COC3)CC2)CC1 [Example 202, N-(5-((6-((R)-3-(3-chloro-2,4-difluorophenyl)isoxazolidine-2-yl)pyrimidine-4-yl)amino)-4-methoxy-2-(4-(4-(oxetane-3-yl)piperazine-1-yl)piperidine-1-yl)phenyl)acrylamide]	A (GI50 < 50 nM)
C=CC(=O)Nc1cc(Nc2cc(N3OCC[C@@H]3c3ccc(F)c(F)c3F)ncn2)c(OC)cc1N1CCC(N2CCN(C3CC3)CC2)CC1 [Example 170, N-(2-(4-(4-cyclopropylpiperazine-1-yl)piperidine-1-yl)-4-methoxy-5-((6-((R)-3-(2,3,4-trifluorophenyl)isoxazolidine-2-yl)pyrimidine-4-yl)amino)phenyl)acrylamide]	A (GI50 < 50 nM)
C=CC(=O)Nc1cc(Nc2cc(N3OCC[C@@H]3c3cccc(C#N)c3)ncn2)c(OC)cc1N1CCC(N(C)C)CC1 [compound 394, N-(5-((6-((R)-3-(3-cyanophenyl)isoxazolidine-2-yl)pyrimidine-4-yl)amino)-2-(4-(dimethylamino)piperidine-1-yl)-4-methoxyphenyl) acrylamide]	A (GI50 < 50 nM)
C=CC(=O)Nc1cc(Nc2cc(N3OCC[C@@H]3c3cccc(C#N)c3)ncn2)c(OC)cc1N1CCC(N2CCOC[C@H]2C)CC1 [compound 388, N-(5-((6-((R)-3-(3-cyanophenyl)isoxazolidine-2-yl)pyrimidine-4-yl)amino)-4-methoxy-2-(4-((R)-3-methylmorpholino)piperidine-1-yl)phenyl) acrylamide]	A (GI50 < 50 nM)
C=CC(=O)Nc1cc(Nc2cc(N3OCC[C@@H]3c3ccc(F)cc3F)ncn2)c(OC)cc1N1CCC(N2CCN(C3COC3)CC2)CC1 [Example 197, N-(5-((6-((R)-3-(2,4-difluorophenyl)isoxazolidine-2-yl)pyrimidine-4-yl)amino)-4-methoxy-2-(4-(4-(oxetane-3-yl)piperazine-1-yl)piperidine-1-yl)phenyl)acrylamide]	A (GI50 < 50 nM)
C=CC(=O)Nc1cc(Nc2cc(N3OCC[C@@H]3c3cccc(F)c3)ncn2)c(OC)cc1N1CC[C@H](N2CCOCC2)C1 [compound 321, N-(5-((6-((R)-3-(3-fluorophenyl)isoxazolidine-2-yl)pyrimidine-4-yl)amino)-4-methoxy-2-((S)-3-morpholinopyrolidine-1-yl)phenyl)acrylamide]	B (50 nM ≤ GI50 < 500 nM)
C=CC(=O)Nc1cc(Nc2cc(N3OCC[C@@H]3c3cccc(Cl)c3F)ncn2)c(OC)cc1N1CCC(N2C[C@@H](C)N(C3CC3)C[C@H]2C)CC1 [Example 122, N-(5-((6-((R)-3-(3-chloro-2-fluorophenyl)isoxazolidine-2-yl)pyrimidine-4-yl)amino)-2-(4-((2R,5R)-4-cyclopropyl-2,5-dimethylpiperazine-1-yl)piperidine-1-yl)-4-methoxyphenyl) acrylamide]	A (GI50 < 50 nM)

Continued, values first:

Ba/F3 (NPH) Activity	Compound
A (GI50 < 50 nM)	C=CC(=O)Nc1cc(Nc2cc(N3OCC[C@@H]3c3ccc(Cl)cc3F)ncn2)c(OC)cc1N1CCC(N2C[C@H]3C[C@@H]2CO3)CC1 [compound 548, N-(2-(4-((1R,4R)-2-oxa-5-azabicyclo[2.2.1]heptane-5-yl)piperidine-1-yl)-5-((6-((R)-3-(4-chloro-2-fluorophenyl)isoxazolidine-2-yl)pyrimidine-4-yl)amino)-4-methoxyphenyl) acrylamide]
A (GI50 < 50 nM)	C=CC(=O)Nc1cc(Nc2cc(N3OCC[C@@H]3c3cc(F)ccc3F)ncn2)c(OC)cc1N1CCC(N2CCN(C(C)=O)CC2)CC1 [compound 815, N-(2-(4-(4-acetylpiperazine-1-yl)piperidine-1-yl)-5-((6-((R)-3-(2,5-difluorophenyl)isoxazolidine-2-yl)pyrimidine-4-yl)amino)-4-methoxyphenyl) acrylamide]
A (GI50 < 50 nM)	C=CC(=O)Nc1cc(Nc2cc(N3OCC[C@@H]3Cc3cc(F)cc(F)c3)ncn2)c(OC)cc1N(C)CCN(C)C [compound 1031, N-(5-((6-((S)-3-(3,5-difluorobenzyl)isoxazolidine-2-yl)pyrimidine-4-yl)amino)-2-((2-(dimethylamino)ethyl)(methyl)amino)-4-methoxyphenyl) acrylamide]
B (50 nM ≤ GI50 < 500 nM)	C=CC(=O)Nc1cc(Nc2cc(N3OCC[C@@H]3c3ccc4ccccc4c3)ncn2)c(OC)cc1N1CCO[C@@H](C)C1 [compound 659, N-(4-methoxy-2-((S)-2-methylmorpholino)-5-((6-((R)-3-(naphthalene-2-yl)isoxazolidine-2-yl)pyrimidine-4-yl)amino)phenyl)acrylamide]
A (GI50 < 50 nM)	C=CC(=O)Nc1cc(Nc2cc(N3OCC[C@@H]3c3cccc(Cl)c3Cl)ncn2)c(OC)cc1N1CCN(C)CC1 [compound 481, N-(5-((6-((R)-3-(2,3-dichlorophenyl)isoxazolidine-2-yl)pyrimidine-4-yl)amino)-4-methoxy-2-(4-methylpiperazine-1-yl)phenyl)acrylamide]
A (GI50 < 50 nM)	C=CC(=O)Nc1cc(Nc2cc(N3OCC[C@@H]3c3ccc(F)c(Cl)c3F)ncn2)c(OC)cc1N1CCC(N2CCOCC2)CC1 [compound 606, N-(5-((6-((R)-3-(3-chloro-2,4-difluorophenyl)isoxazolidine-2-yl)pyrimidine-4-yl)amino)-4-methoxy-2-(4-morpholinopiperidine-1-yl)phenyl)acrylamide]
A (GI50 < 50 nM)	C=CC(=O)Nc1cc(Nc2cc(N3OCC[C@@H]3c3cccs3)ncn2)c(OC)cc1N1CCC(N2C[C@H]3C[C@@H]2CO3)CC1 [compound 930, N-(2-(4-((1R,4R)-2-oxa-5-azabicyclo [2.2.1]heptane-5-yl)piperidine-1-yl)-4-methoxy-5-((6-((R)-3-(thiophene-2-yl)isoxazolidine-2-yl)pyrimidine-4-yl)amino)phenyl)acrylamide]
A (GI50 < 50 nM)	C=CC(=O)Nc1cc(Nc2cc(N3OCC[C@@H]3c3cccc4ccccc34)ncn2)c(OC)cc1N1CCC(N2C[C@@H]3C[C@H]2CO3)CC1 [compound 489, N-(2-(4-((1S,4S)-2-oxa-5-azabicyclo[2.2.1]heptane-5-yl)piperidine-1-yl)-4-methoxy-5-((6-((R)-3-(naphthalene-1-yl)isoxazolidine-2-yl)pyrimidine-4-yl)amino)phenyl)acrylamide]
A (GI50 < 50 nM)	C=CC(=O)Nc1cc(Nc2cc(N3OCC[C@@H]3c3ccc(F)cc3F)ncn2)c(OC)cc1N1CCN(C2CC2)[C@@H](C)C1 [compound 479, N-(2-((S)-4-cyclopropyl-3-methylpiperazine-1-yl)-5-((6-((R)-3-(2,4-difluorophenyl)isoxazolidine-2-yl)pyrimidine-4-yl)amino)-4-methoxyphenyl) acrylamide]
B (50 nM ≤ GI50 < 500 nM)	C=CC(=O)Nc1cc(Nc2cc(N3OCC[C@@H]3c3cccc(C(F)(F)F)c3)ncn2)c(OC)cc1N1CC[C@H](N2CCOCC2)C1 [compound 507, N-(4-methoxy-2-((S)-3-morpholinopyrolidine-1-yl)-5-((6-((R)-3-(3-(trifluoromethyl)phenyl)isoxazolidine-2-yl)pyrimidine-4-yl)amino)phenyl)acrylamide]
A (GI50 < 50 nM)	C=CC(=O)Nc1cc(Nc2cc(N3OCC[C@@H]3c3cc(F)cc(Cl)c3)ncn2)c(OC)cc1N1CCC(N2C[C@@H](C)O[C@@H](C)C2)CC1 [compound 594, N-(5-((6-((R)-3-(3-chloro-5-fluorophenyl)isoxazolidine-2-yl)pyrimidine-4-yl)amino)-2-(4-((2S,6R)-2,6-dimethylmorpholino)piperidine-1-yl)-4-methoxyphenyl) acrylamide]
B (50 nM ≤ GI50 < 500 nM)	C=CC(=O)Nc1cc(Nc2cc(N3OCC[C@@H]3Cc3ccccc3)ncn2)c(OC)cc1N(C)CCOC [compound 953, N-(5-((6-((S)-3-benzylisoxazolidine-2-yl)pyrimidine-4-yl)amino)-4-methoxy-2-((2-methoxyethyl) (methyl)amino)phenyl) acrylamide]
A (GI50 < 50 nM)	C=CC(=O)Nc1cc(Nc2cc(N3OCC[C@@H]3c3cccc(Cl)c3C)ncn2)c(OC)cc1N1CCC(N2CCN(C(C)C)CC2)CC1 [compound 580, N-(5-((6-((R)-3-(3-chloro-2-methylphenyl)isoxazolidine-2-yl)pyrimidine-4-yl)amino)-2-(4-(4-isopropylpiperazine-1-yl)piperidine-1-yl)-4-methoxyphenyl) acrylamide]
A (GI50 < 50 nM)	C=CC(=O)Nc1cc(Nc2cc(N3OCC[C@@H]3c3ccc(Cl)c(F)c3)ncn2)c(OC)cc1N1CCC(N2C[C@@H]3C[C@H]2CN3C)CC1 [compound 857, N-(5-((6-((R)-3-(4-chloro-3-fluorophenyl)isoxazolidine-2-yl)pyrimidine-4-yl)amino)-4-methoxy-2-(4-((1S,4S)-5-methyl-2,5-diazabicyclo[2.2.1]heptane-2-yl)piperidine-1-yl)phenyl)acrylamide]
